Laboratory results reported in patent publication US10759788B2, “Pharmaceutical uses of pyridine carboxamide derivatives” (Jiangsu Hengrui Medicine Co., Ltd., priority 2014, dated 2020).
“Also recorded” adds a separate entry of the source.

How the values were obtained:
[1] = Solubility observed when preparing the drugs for the diuresis experiment; type: physicochemical; settings: preparation of the dosing liquid, observation in words
From the text: In this experiment, the solubility of the test compound I was very good. There was no delamination phenomenon. […] After fully grinding, the solubility improved. […] Moreover, the effect was dose-dependent for each dose of the test compound I and the positive control drug.

[2] = tested on: SD rats; assay: Diuretic efficacy of ROMK inhibitors in SD rats; type: in vivo; settings: 0.03 and 0.1 mg/kg i.g. once, after urine collection
Experimental: The diuretic efficacy of compound 1 and positive control drug of ROMK inhibitor on SD rats was evaluated.
Male SD rats were purchased from SINO-BRITSH SIPPR/BK LAB. ANIMAL LTD., CO (Shanghai, China, Certificate No. 2008001647752, License SCXK (Shanghai) 2013-0016). The rats were 120-130 g, and fed at 5/cage, in a 12/12 hours light/dark cycle regulation, at a constant temperature of 23±1° C., humidity of 50-60%, and free access to water and food. The male SD rats were acclimated to this condition for 7 days before their use in the diuresis experiment.
The experiment was carried out according to the method disclosed in PCT Patent Application Publication WO2010129379A1. After adaptive feeding, the rats were placed in metabolism cages and fasted overnight. The rats were weighed and randomly divided into the following groups: blank control group, compound 1 tested drug 0.03 mg/kg group and 0.1 mg/kg group, and the positive control group 0.03 mg/kg and group 0.1 mg/kg, with 10 rats for each group. Each rat was intragastrically administered each compound (ig, 1 ml/kg). The rats in the blank control group were fed with the corresponding solvent. After intragastric administration, the rats were placed in the normal cage. After 30 min, 25 ml/kg normal saline was given. Rats were put into the metabolic cages, and fasting for food and water began inmediately. The total urine volume in 4 h was collected and measured. The urinary sodium and urinary potassium excretion in 4 h were also measured. The orbital serum was collected after the collection of urine to test the serum sodium and serum potassium concentrations.
The experimental data were expressed as mean±standard deviation (S.D.). The data was statistically compared using the t test of excel.

| Compound | solubility [1] | serum potassium [2] | serum sodium [2] | serum potassium ([2]; listed as Compound I) |
| --- | --- | --- | --- | --- |
| COc1cc(C(=O)NC2CCN(C[C@H](O)c3ccc4c(c3C)COC4=O)CC2)ncc1C#N [Example 1, (R)-5-cyano-N-(1-(2-hydroxy-2-(4-methyl-1-oxo-1,3-dihydroisobenzofuran-5-yl)ethyl)piperidin-4-yl)-4-methoxypicolinamide] | very good | changed a little | changed a little | no effect |
| Cc1cc(C(=O)NC2CCN(C[C@H](O)c3ccc4c(c3C)COC4=O)CC2)ncc1C#N [positive control drug] | poor solubility | changed a little; also recorded: no effect | changed a little | – |
